System: L929 cells
Assay: Long-term necroptosis inhibition in L929 cells + mTNF-α, 24 h, LDH release
Format: cell-based, murine
Conditions: Mus musculus, 10 ng/mL mTNF-α, screening step 7, read-out: EC50 L929 + TNF-α (in vitro)
Description: The ability of compounds to interfere with specific steps of the necroptosis pathway, as well as inherent cytotoxicity and long-term necroptosis inhibitory effects were evaluated using in vitro necroptosis models (Fig. S1). Firstly, the 110 compounds were tested for their ability to modulate TNF-α-induced MLKL phosphorylation, a key necroptotic effector downstream of RIPK3[13]. […] Membrane integrity was evaluated by both AK and LDH release to exclude potential false positives.
Whole cell extracts were analysed by immunoblotting. […] Data represent mean values ± SEM of three independent experiments normalized to untreated control. Cell viability was assessed using a colorimetric-based readout for LDH release.
Whole cell extracts were analysed by immunoblotting. Data shown are representative blots and quantification of p-MLKL/MLKL ratio from one single experiment, in fold-change from control. […] Data represent mean values ± SEM of three independent experiments normalized to untreated control. Cell viability was assessed using a colorimetric-based readout for LDH release. c In vitro screening results for seven selected compounds at different stages of the HTS cascade. TEXT PRINTED IN THE PICTURE: (C) Nec-1: EC50 [μM] L929 + TNF-α (in vitro): 1.25 (Screening Step: 1; Time Point: 8 h); EC50 [μM] L929 + TNF-α (in vitro): 1.13 (Screening Step: 7; Time Point: 24 h); EC50 [μM] […]

Row | Compound | EC50 [µM]
1 | O=C(c1cnn(Cc2ccccc2)c1)N1CCOc2ccccc2C1 [SN-6109] | 11.5
2 | CN1C(=O)C(Cc2c[nH]c3ccccc23)NC1=S (centres unmarked) [Nec-1, necrostatin-1] | 1.13

— publication PMC7026080, “Phenotypic high-throughput screening platform identifies novel chemotypes for necroptosis inhibition” (Cell Death Discovery, 2020)
